Experimental findings from patent US12551500B2, “C6′-substituted locked nucleic acid-modified cap analog and use thereof” (Hangzhou Tianlong Pharmaceutical Co., Ltd., priority 2024, dated 2026) are described below.

Assay [1] addresses T7 RNA polymerase (Escherichia phage T7, UniProt P00573). Description: Capping rate of in vitro transcribed mRNA by LC-MS. Format: biochemical. As to conditions: for capping rate higher than that of compound 14: difference to compound 14. The method, then: YK-CAP-001 to 006 and compound 14 in Table 1 were respectively used as cap analogs.
During the experiment, the volume of materials required for the system was first calculated, and then sample addition was conducted. The system was first added with sterile enzyme-free water, followed by the sequential addition of 10× buffer, NTPs, and cap analogs, mixed well, and gently centrifuged. Nuclease inhibitors, inorganic pyrophosphatase, T7 RNA polymerase, and linearized DNA templates were then added thereto. The system was mixed well, gently centrifuged, and incubated at 37° C. After 2 hours of incubation, the system was added with 1 U of DNase I and incubated at 37° C. for another 30 minutes. The mRNA precipitate was then washed with 75% ethanol, and after the ethanol was briefly evaporated to dryness, the mRNA was redissolved in sterile enzyme-free water.
(4) The obtained mRNA was subjected to an annealing reaction with a probe.
The annealing reaction was performed in a PCR instrument: 95° C. for 5 minutes; 65° C. for 2 minutes; 55° C. for 2 minutes; 40° C. for 2 minutes; 22° C. for 2 minutes.
(5) Magnetic bead pretreatment and probe binding: 100 μL of magnetic beads was placed on a magnetic frame for pretreatment. The magnetic bead solution was added with 120 μL of sample and incubated at room temperature for 30 minutes with slow mixing.
(6) mRNA splicing and obtaining the 5′ single-strand sequence bound to the probe
The mixture was added with 20 μL of RNase H (5 U/μL) and incubated at 37° C. for 3 hours with mixing every half hour. After incubation, the magnetic beads were washed and then added with 100 μL of 75% methanol heated to 80° C. The mixture was heated to 80° C. on a heating plate, held for 3 minutes, then placed on a magnetic frame to aspirate the supernatant, and dried at room temperature for 45 minutes to a volume of 10 μL using a centrifugal evaporator. The sample was then resuspended in 50 μL of 100 μM EDTA/1% MeOH and ready for LC-MS analysis to determine the capping of RNA in the transcription reaction. Since there is a significant difference in molecular weight between capped and uncapped bases, the capping rate of mRNA transcription initiated by different cap analogs can be determined based on the difference in molecular mass.

Assay [2] deals with BALB/C mice. Description: In vivo imaging of protein expressed by LNP-carrying Fluc-mRNA in mice. The conditions noted are these: for Average radiation intensity: female BALB/C mice; for average radiation intensity, times that of N-7413: ratio to N-7413; for average radiation intensity, times that of YK-CAP-001: ratio to YK-CAP-001; for average radiation intensity, times that of YK-CAP-002: ratio to YK-CAP-002; for average radiation intensity, times that of compound 14: ratio to compound 14; for average radiation intensity, times that of m6A: ratio to m6A. The method, then: The LNP preparation containing […] of Fluc-mRNAs transcribed using the cap analogs YK-CAP-001 to 006 in the present disclosure and the cap analogs N-7413, compound 14, and m6A in the prior art was intramuscularly injected into female BALB/C mice aged 4 to 6 weeks and weighing 17 to 19 g. At specific time points after administration (6 hours, 12 hours, 24 hours, 48 hours, 96 hours, and 168 hours), the mice were intraperitoneally injected with fluorescence imaging substrate. The mice were then allowed to move freely for 5 minutes, followed by detection of the average radiation intensity (corresponding to the amount of protein expression) of the protein expressed by LNP-carrying mRNA in the mice using an IVIS Spectrum small-animal in vivo imaging system.

Setting [3] is: 6 h after intramuscular injection of LNP Fluc-mRNA.
Where [4] appears, read: 12 h after intramuscular injection of LNP Fluc-mRNA.
[5] abbreviates: 24 h after intramuscular injection of LNP Fluc-mRNA.
Where [6] appears, read: 48 h after intramuscular injection of LNP Fluc-mRNA.
Setting [7] is: 96 h after intramuscular injection of LNP Fluc-mRNA.
The mark [8] stands for this setting: 168 h after intramuscular injection of LNP Fluc-mRNA.

Chain of T7 RNA polymerase (P00573 whole entry): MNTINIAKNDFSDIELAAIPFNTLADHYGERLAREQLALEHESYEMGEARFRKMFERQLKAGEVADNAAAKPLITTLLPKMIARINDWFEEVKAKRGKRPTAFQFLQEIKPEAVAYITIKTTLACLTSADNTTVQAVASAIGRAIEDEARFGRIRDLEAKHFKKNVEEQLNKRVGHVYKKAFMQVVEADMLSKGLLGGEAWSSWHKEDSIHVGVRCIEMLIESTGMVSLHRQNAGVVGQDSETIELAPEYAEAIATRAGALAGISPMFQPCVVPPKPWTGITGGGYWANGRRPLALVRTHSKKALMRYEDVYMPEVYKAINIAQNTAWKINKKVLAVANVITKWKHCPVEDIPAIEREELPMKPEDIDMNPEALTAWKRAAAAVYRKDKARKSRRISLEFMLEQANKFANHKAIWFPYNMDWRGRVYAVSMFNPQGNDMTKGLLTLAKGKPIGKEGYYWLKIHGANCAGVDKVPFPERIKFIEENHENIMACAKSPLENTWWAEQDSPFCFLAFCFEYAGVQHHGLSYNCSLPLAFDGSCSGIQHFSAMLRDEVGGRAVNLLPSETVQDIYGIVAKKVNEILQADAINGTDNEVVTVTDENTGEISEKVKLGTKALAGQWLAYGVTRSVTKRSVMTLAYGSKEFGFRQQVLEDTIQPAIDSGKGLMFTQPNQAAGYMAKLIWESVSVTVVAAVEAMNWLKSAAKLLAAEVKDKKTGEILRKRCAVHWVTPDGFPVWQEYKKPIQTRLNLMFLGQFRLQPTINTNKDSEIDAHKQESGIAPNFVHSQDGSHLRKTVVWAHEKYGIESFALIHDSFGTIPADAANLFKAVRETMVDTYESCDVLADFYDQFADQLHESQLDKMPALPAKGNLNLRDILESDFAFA

Regarding `COC1C(OP(=O)([O-])OC[C@H]2O[C@@H](n3cnc4c(=O)[nH]c(N)nc43)C(O)C2O)[C@@H](COP(=O)(O)OP(=O)(O)OP(=O)(O)OC[C@]23O[C@@H]([n+]4cn(C)c5c(=O)[nH]c(N)nc54)C(O[C@H]2CC(F)F)C3O)O[C@H]1n1cnc2c(N)ncnc21` (some centres unmarked) [YK-CAP-004], the “capping rate higher than that of YK-CAP-001” value in assay [1] (difference to YK-CAP-001) is on record as 23.2%. Further, in assay [1] (difference to YK-CAP-002), the “capping rate higher than that of YK-CAP-002” value came to 26.1%. The “capping rate higher than that of compound 14” value in assay [1] worked out at 18.8%. This molecule registered a Capping rate in assay [1] (mRNA transcribed with the cap analog, LC-MS) of 96.3%. For the same molecule, the Average radiation intensity came to 3856100 p/s/cm^2/sr in assay [2] (setting [3]); 2836750 p/s/cm^2/sr in assay [2] (setting [4]); 1159325 p/s/cm^2/sr in assay [2] (setting [5]); 903025 p/s/cm^2/sr in assay [2] (setting [6]); 114933 p/s/cm^2/sr in assay [2] (setting [7]); 19785 p/s/cm^2/sr in assay [2] (setting [8]). The “average radiation intensity, times that of N-7413” value in assay [2] (at 6 hours) turned out to be 1.4 times; in assay [2] (at 96 hours), 1.7 times. The “average radiation intensity, times that of YK-CAP-001” value in assay [2] (at 6 hours) worked out at 2.2 times; in assay [2] (at 96 hours) it was 2.6 times. In addition, the entries for the “average radiation intensity, times that of YK-CAP-002” value in assay [2] (at 6 hours) and in assay [2] (at 96 hours) were 2.6 times and 5.5 times, respectively. The “average radiation intensity, times that of compound 14” value in assay [2] (at 6 hours) turned out to be 1.5 times; in assay [2] (at 96 hours), 2.0 times. Also, the “average radiation intensity, times that of m6A” value in assay [2] (at 6 hours) is recorded as 2.1 times; in assay [2] (at 96 hours), 3.4 times.
With `COC1C(OP(=O)([O-])OC[C@H]2O[C@@H](n3cnc4c(=O)[nH]c(N)nc43)C(O)C2O)[C@@H](COP(=O)(O)OP(=O)(O)OP(=O)(O)OC[C@]23O[C@@H]([n+]4cn(C)c5c(=O)[nH]c(N)nc54)C(O[C@H]2CC(=O)N(C)C)C3O)O[C@H]1n1cnc2c(N)ncnc21` (some centres unmarked) [YK-CAP-003], the “capping rate higher than that of compound 14” value in assay [1] turned out to be 17.3%. For the same molecule, the Average radiation intensity was found to be 3212750 p/s/cm^2/sr in assay [2] (setting [3]); 2454750 p/s/cm^2/sr in assay [2] (setting [4]); 1053625 p/s/cm^2/sr in assay [2] (setting [5]); 700200 p/s/cm^2/sr in assay [2] (setting [6]); 57893 p/s/cm^2/sr in assay [2] (setting [7]); 19016 p/s/cm^2/sr in assay [2] (setting [8]). Also, the entries for the “average radiation intensity, times that of N-7413” value in assay [2] (at 6 hours) and in assay [2] (at 96 hours) were 1.2 times and 0.8 times, respectively. The “average radiation intensity, times that of YK-CAP-001” value is listed as 1.9 times in assay [2] (at 6 hours) and 1.3 times in assay [2] (at 96 hours). The figures for the “average radiation intensity, times that of YK-CAP-002” value in assay [2] (at 6 hours) and in assay [2] (at 96 hours) were 2.2 times and 2.8 times, respectively. The entries for the “average radiation intensity, times that of compound 14” value in assay [2] (at 6 hours) and in assay [2] (at 96 hours) were 1.2 times and 1.0 times, respectively. The “average radiation intensity, times that of m6A” value is on record as 1.8 times in assay [2] (at 6 hours) and 1.7 times in assay [2] (at 96 hours).
Consider `COC1C(OP(=O)([O-])OC[C@H]2O[C@@H](n3cnc4c(=O)[nH]c(N)nc43)C(O)C2O)[C@@H](COP(=O)(O)OP(=O)(O)OP(=O)(O)OC[C@]23O[C@@H]([n+]4cn(C)c5c(=O)[nH]c(N)nc54)C(O[C@H]2CCS(=O)(=O)N(C)C)C3O)O[C@H]1n1cnc2c(N)ncnc21` (some centres unmarked) [YK-CAP-006], for which the “capping rate higher than that of compound 14” value in assay [1] is given as 17.6%. In addition, the Average radiation intensity in assay [2] (setting [3]) amounted to 3303900 p/s/cm^2/sr; in assay [2] (setting [4]), 2067750 p/s/cm^2/sr; in assay [2] (setting [5]), 976550 p/s/cm^2/sr; in assay [2] (setting [6]) it was 798075 p/s/cm^2/sr; in assay [2] (setting [7]), 75840 p/s/cm^2/sr; in assay [2] (setting [8]) it was 15660 p/s/cm^2/sr. Further, the “average radiation intensity, times that of N-7413” value in assay [2] (at 6 hours) came to 1.2 times; in assay [2] (at 96 hours), 1.1 times. Besides, the results for the “average radiation intensity, times that of YK-CAP-001” value in assay [2] (at 6 hours) and in assay [2] (at 96 hours) were 1.9 times and 1.7 times, respectively. For the same molecule, the “average radiation intensity, times that of YK-CAP-002” value turned out to be 2.3 times in assay [2] (at 6 hours) and 3.6 times in assay [2] (at 96 hours). In addition, the “average radiation intensity, times that of compound 14” value in assay [2] (at 6 hours) and in assay [2] (at 96 hours) was 1.3 times in each case. Further, the “average radiation intensity, times that of m6A” value in assay [2] (at 6 hours) is 1.8 times; in assay [2] (at 96 hours) it was 2.3 times.
In the case of `COC1C(OP(=O)([O-])OC[C@H]2O[C@@H](n3cnc4c(=O)[nH]c(N)nc43)C(O)C2O)[C@@H](COP(=O)(O)OP(=O)(O)OP(=O)(O)OC[C@]23O[C@@H]([n+]4cn(C)c5c(=O)[nH]c(N)nc54)C(O[C@H]2CCS(C)(=O)=O)C3O)O[C@H]1n1cnc2c(N)ncnc21` (some centres unmarked) [YK-CAP-005], the “capping rate higher than that of compound 14” value in assay [1] is reported as 17.7%. Besides, the Average radiation intensity is on record as 3171000 p/s/cm^2/sr in assay [2] (setting [3]); 2497200 p/s/cm^2/sr in assay [2] (setting [4]); 998650 p/s/cm^2/sr in assay [2] (setting [5]); 834250 p/s/cm^2/sr in assay [2] (setting [6]); 110595 p/s/cm^2/sr in assay [2] (setting [7]); 17807 p/s/cm^2/sr in assay [2] (setting [8]). Moreover, the results for the “average radiation intensity, times that of N-7413” value in assay [2] (at 6 hours) and in assay [2] (at 96 hours) were 1.1 times and 1.6 times, respectively. Moreover, the “average radiation intensity, times that of YK-CAP-001” value was 1.8 times in assay [2] (at 6 hours) and 2.5 times in assay [2] (at 96 hours). The “average radiation intensity, times that of YK-CAP-002” value in assay [2] (at 6 hours) came out at 2.2 times; in assay [2] (at 96 hours) it was 5.3 times. Besides, the “average radiation intensity, times that of compound 14” value is on record as 1.2 times in assay [2] (at 6 hours) and 1.9 times in assay [2] (at 96 hours). Also, the figures for the “average radiation intensity, times that of m6A” value in assay [2] (at 6 hours) and in assay [2] (at 96 hours) were 1.8 times and 3.3 times, respectively.
